This passage reports IC50 results from the Kinase Knowledgebase extract (Sharma et al. 2016).

Usually IC50 stands for the concentration that inhibits the measured activity by half. The low end stands for higher potency, the high end for lower potency.

SMILES strings stand for the structures.

In this test the target is PIK3CA (human) (UniProt P42336). The experiment in a line: Inhibition of PIK3CA Kinase Activity.
Sequence of PIK3CA (human) (P42336 whole entry, looked up): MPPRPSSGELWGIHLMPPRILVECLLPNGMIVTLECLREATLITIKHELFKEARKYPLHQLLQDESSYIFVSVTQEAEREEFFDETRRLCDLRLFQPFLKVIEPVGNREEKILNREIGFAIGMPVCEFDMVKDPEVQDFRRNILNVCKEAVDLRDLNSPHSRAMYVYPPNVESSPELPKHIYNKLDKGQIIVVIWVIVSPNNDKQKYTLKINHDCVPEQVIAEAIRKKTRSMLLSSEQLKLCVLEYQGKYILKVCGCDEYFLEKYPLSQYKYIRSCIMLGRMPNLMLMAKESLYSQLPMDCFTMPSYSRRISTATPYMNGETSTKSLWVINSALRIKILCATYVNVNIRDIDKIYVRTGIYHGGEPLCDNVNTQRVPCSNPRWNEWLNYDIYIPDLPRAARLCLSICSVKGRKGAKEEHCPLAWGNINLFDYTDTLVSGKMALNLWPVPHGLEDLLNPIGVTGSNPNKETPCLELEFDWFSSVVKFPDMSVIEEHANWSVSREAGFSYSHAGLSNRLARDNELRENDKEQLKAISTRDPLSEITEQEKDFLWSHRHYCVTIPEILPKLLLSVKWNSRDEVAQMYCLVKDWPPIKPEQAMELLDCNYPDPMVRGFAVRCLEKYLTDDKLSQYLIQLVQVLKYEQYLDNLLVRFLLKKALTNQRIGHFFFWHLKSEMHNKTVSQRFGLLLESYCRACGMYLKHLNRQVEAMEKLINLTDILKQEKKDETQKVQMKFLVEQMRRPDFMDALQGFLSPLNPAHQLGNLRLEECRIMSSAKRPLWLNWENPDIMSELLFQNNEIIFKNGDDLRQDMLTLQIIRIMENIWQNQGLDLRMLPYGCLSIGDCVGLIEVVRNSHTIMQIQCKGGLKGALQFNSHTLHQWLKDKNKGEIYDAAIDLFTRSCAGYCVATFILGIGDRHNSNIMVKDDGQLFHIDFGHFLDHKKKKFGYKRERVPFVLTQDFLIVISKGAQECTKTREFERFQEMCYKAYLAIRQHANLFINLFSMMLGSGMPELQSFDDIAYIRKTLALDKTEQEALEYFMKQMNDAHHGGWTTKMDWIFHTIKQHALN
The compound `CCOC(=O)c1nc(N2CCOc3ccc(-c4ccc5nc(C)[nH]c5c4)cc3C2)c2ccccc2n1` displayed a half-maximal inhibitory concentration (IC50) of 50 to 250 nM.

Turning to `Cc1nc(CNCCF)nc(N2CCOc3ccc(-c4cnc5sc(N)nc5c4)cc3C2)c1C(C)C`, the half-maximal inhibitory concentration (IC50) was not above 10 nM.

Take `COc1ccc(-c2ccc3c(c2)CN(c2nc(CN(C)C)nc4c2CC(C)(C)CC4)CCO3)cc1C(C)=O`: the IC50 lay in the range of 250 to 1000 nM.

The compound `Cc1nc(CN(C)C)nc(N2CCOc3ccc(-c4cnc5sc(N)nc5c4)cc3C2)c1Cl` yielded a concentration for half-maximal inhibition (IC50) of 10 to 50 nM.

Compound `CC1(C)CCc2ncnc(N3CCOc4ccc(-c5ccc(Cl)c(NS(C)(=O)=O)c5)cc4C3)c2C1` returned a half-maximal inhibitory concentration (IC50) of 250 to 1000 nM.

`Cc1nc2ncc(-c3ccc4c(c3)CN(c3nc(CO)nc5c3CC(C)(C)CC5)CCO4)cc2[nH]1` had a half-maximal inhibitory concentration (IC50) of 10 to 50 nM.

On to `CC1(C)CCc2ncnc(N3CCOc4ccc(-c5cnc(N)c(S(=O)(=O)NC(C)(C)CN)c5)cc4C3)c2C1`, for which the IC50 lay in the range of 50 to 250 nM.

Take `CC1(C)CCc2ncnc(N3CCOc4ccc(-c5cnc(N)c(S(=O)(=O)N6CC(F)(F)C6)c5)cc4C3)c2C1`: the IC50 is 50 to 250 nM.

In turn, `Cc1ncnc(N2CCOc3ccc(-c4ccc5nc(N)[nH]c5n4)cc3C2)c1Cc1ccc(F)cc1` returned an IC50 of 10 to 50 nM.

For `C=CCc1c(C)nc(CN(C)C)nc1N1CCOc2ccc(-c3cnc4sc(N)nc4c3)cc2C1`, the IC50 is not above 10 nM.

As to `Cc1nc2ccc(-c3ccc4c(c3)CN(c3ncnc5c3CCC(C)C5)CCO4)cc2[nH]1` (configuration not stated), the IC50 was 10 to 50 nM.

The compound `CC1(C)CCc2ncnc(N3CCOc4ccc(-c5cnc(N)c(S(=O)(=O)NCCCO)c5)cc4C3)c2C1` showed a 50% inhibitory concentration (IC50) not above 10 nM.

`Cc1nc2ncc(-c3ccc4c(c3)CN(c3nc(CN(C)C(C)C)nc5c3CC(C)(C)CC5)CCO4)cc2[nH]1` returned an IC50 not above 10 nM.

`COc1ccc2c(N3CCOc4ccc(-c5ccc(N)nc5)cc4C3)nc(C)nc2c1`: the IC50 lay in the range of 50 to 250 nM.

As for `Cc1nc2c(c(N3CCOc4ccc(-c5cnc6sc(N)nc6c5)cc4C3)n1)CC(C)(C)CC2`, the half-inhibitory concentration (IC50) lay in the range of 10 to 50 nM.

`COc1c(Cl)cc2c(N3CCOc4ccc(-c5ccc6nc(C)[nH]c6c5)cc4C3)ncnc2c1OC`: the 50% inhibitory concentration (IC50) fell in the range of 50 to 250 nM.

`C[C@@H](CO)CS(=O)(=O)c1cc(-c2ccc3c(c2)CN(c2ncnc4c2CC(C)(C)CC4)CCO3)cnc1N` returned a half-maximal inhibitory concentration (IC50) not above 10 nM.

For `Cc1nc2ccc(-c3ccc4c(c3)CN(c3ncnc5c3CC(C)(C)CC5)CCO4)cc2[nH]1`, the IC50 was in the range of 10 to 50 nM.

On to `Cc1nc2ncc(-c3ccc4c(c3)CN(c3ncnc5c3CCC(C)C5)CCO4)cc2[nH]1` (configuration not stated), for which the IC50 fell in the range of 10 to 50 nM.

As to `COc1ccc2nc(Cl)nc(N3CCOc4ccc(-c5ccc6nc(C)[nH]c6c5)cc4C3)c2c1`, the concentration for half-maximal inhibition (IC50) lay within 250 to 1000 nM.

As to `COc1cc2ncnc(N3CCOc4ccc(-c5ccc6nc(C)[nH]c6c5)cc4C3)c2cc1Br`, the IC50 fell in the range of 50 to 250 nM.

Compound `CC1(C)CCc2ncnc(N3CCOc4ccc(-c5ccc(-c6ncc[nH]6)cc5)cc4C3)c2C1` registered a concentration for half-maximal inhibition (IC50) of 10 to 50 nM.

`Cc1nc2ncc(-c3ccc4c(c3)CN(c3ncnc5c3CCCC5(C)C)CCO4)cc2[nH]1` returned a concentration for half-maximal inhibition (IC50) of 50 to 250 nM.

In the case of `CC[C@H]1CCc2c(ncnc2N2CCOc3ccc(-c4cnc(N)c(S(=O)(=O)N5CC[C@@H](N)C5)c4)cc3C2)C1`, the IC50 is 10 to 50 nM.

Compound `Cc1nc(CN(C)C)nc(N2CCOc3ccc(-c4cnc5sc(N)nc5c4)cc3C2)c1-c1ccccc1` returned an IC50 of 10 to 50 nM.

The compound `CC1(C)C=Cc2ncnc(N3CCOc4ccc(-c5ccc(-c6ncc[nH]6)cc5)cc4C3)c2C1` displayed a half-maximal inhibitory concentration (IC50) of 10 to 50 nM.

Compound `CNC1CN(S(=O)(=O)c2cc(-c3ccc4c(c3)CN(c3ncnc5c3CC(C)(C)CC5)CCO4)cnc2N)C1` returned an IC50 of 10 to 50 nM.

`Cc1ncnc(N2CCOc3ccc(-c4ccc5nc(N)sc5n4)cc3C2)c1Cc1ccc(F)cc1` showed a concentration for half-maximal inhibition (IC50) of 50 to 250 nM.

`CCNc1nc2ccc(-c3ccc4c(c3)CN(c3nc(C)nc5cc(F)ccc35)CCO4)cc2[nH]1` showed an IC50 not above 10 nM.

`CN(C)Cc1nc2c(c(N3CCOc4ccc(-c5ccc6scnc6c5)cc4C3)n1)CC(C)(C)CC2` showed an IC50 of 250 to 1000 nM.

The compound `CCNc1nc2ccc(-c3ccc4c(c3)CN(c3nc(CC)nc5ccccc35)CCO4)cc2[nH]1` came in with an IC50 of 10 to 50 nM.

`CCNc1nc2ccc(-c3ccc4c(c3)CN(c3ncnc(Nc5ccccc5)c3C)CCO4)cc2[nH]1` came in with an IC50 of 10 to 50 nM.

`CC1(C)CCc2ncnc(N3CCOc4ccc(-c5cnc6[nH]c(C7CC7)nc6c5)cc4C3)c2C1` showed an IC50 of 10 to 50 nM.

Turning to `COCCOc1cc(-c2ccc3c(c2)CN(c2nc(CN(C)C)nc4c2CC(C)(C)CC4)CCO3)ccc1OC`, the half-inhibitory concentration (IC50) was in the range of 50 to 250 nM.

In turn, `COc1ccc2c(N3CCOc4ccc(-c5ccc6[nH]ncc6c5)cc4C3)nc(C)nc2c1` showed a half-inhibitory concentration (IC50) of 250 to 1000 nM.

Turning to `Cc1nc2ccc(-c3ccc4c(c3)CN(c3nc(CN5CC[C@@H](F)C5)nc5c3CC(C)(C)CC5)CCO4)cc2[nH]1`, the IC50 lay in the range of 10 to 50 nM.

Compound `Cc1nc2ncc(-c3ccc4c(c3)CN(c3nc(CNC5CC5)nc5c3CC(C)(C)CC5)CCO4)cc2[nH]1` displayed an IC50 of 10 to 50 nM.

Compound `CC[C@H]1CCc2c(ncnc2N2CCOc3ccc(-c4cnc5nc(NC(=O)OC)[nH]c5c4)cc3C2)C1` returned a concentration for half-maximal inhibition (IC50) not above 10 nM.

Compound `CCN1CCc2c(ncnc2N2CCOc3ccc(-c4ccc5nc(C)[nH]c5c4)cc3C2)C1` gave an IC50 of 250 to 1000 nM.

`Cc1nc2ncc(-c3ccc4c(c3)CN(c3nc(CNC5CCCC5)nc5c3CC(C)(C)CC5)CCO4)cc2[nH]1` returned a half-inhibitory concentration (IC50) of 10 to 50 nM.

On to `Cc1nc2c(c(N3CCOc4ccc(-c5cnc(N)c(S(=O)(=O)N(C)C)c5)cc4C3)n1)CC(C)(C)CC2`, for which the IC50 was 50 to 250 nM.

In turn, `Cc1nc2ncc(-c3ccc4c(c3)CN(c3nc(CN[C@@H](C)C(=O)O)nc5c3CC(C)(C)CC5)CCO4)cc2[nH]1` registered an IC50 not above 10 nM.

Consider `CC1(C)CCc2ncnc(N3CCOc4ccc(-c5cnc(N)c(S(=O)(=O)NCCCN)c5)cc4C3)c2C1`, for which the half-inhibitory concentration (IC50) was not above 10 nM.

Compound `CC1(C)CCc2ncnc(N3CCOc4ccc(-c5cnc6nc[nH]c6c5)cc4C3)c2C1` returned an IC50 of 10 to 50 nM.

`Cc1nc2ccc(-c3ccc4c(c3)CN(c3ncnc5cc(F)ccc35)CCO4)cc2[nH]1` returned an IC50 of 10 to 50 nM.

In turn, `CC1(C)CCc2ncnc(N3CCOc4ccc(-c5cnc(Cl)c(CS(C)(=O)=O)c5)cc4C3)c2C1` registered an IC50 of 250 to 1000 nM.

In the case of `COCCOc1ccc(-c2ccc3c(c2)CN(c2nc(CN(C)C)nc4c2CC(C)(C)CC4)CCO3)cc1OC`, the IC50 is 50 to 250 nM.

For `Cc1c(Nc2ccccc2)ncnc1N1CCOc2ccc(-c3cnc4nc(N)[nH]c4c3)cc2C1`, the IC50 is not above 10 nM.

As to `Cc1nc(N)nc(N2CCOc3ccc(-c4cnc5[nH]cnc5c4)cc3C2)c1Cc1ccc(F)cc1`, the IC50 is not above 10 nM.

In turn, `CC1(C)CCc2ncnc(N3CCOc4ccc(-c5cnc(N)c(CS(C)(=O)=O)c5)cc4C3)c2C1` gave an IC50 of 50 to 250 nM.

The compound `CC1(C)CCc2ncnc(N3CCOc4ccc(-c5cnc(N)c(S(=O)(=O)NCC(O)CO)c5)cc4C3)c2C1` (configuration not stated) gave an IC50 of 10 to 50 nM.

As for `Cc1nc2cc(-c3ccc4c(c3)CN(c3nc(CN(C)C)nc(C)c3Cc3ccc(F)cc3)CCO4)cnc2[nH]1`, the IC50 is not above 10 nM.

For the compound `CC1(C)CCc2ncnc(N3CCOc4ccc(-c5cnc(N)c(S(=O)(=O)CC(O)CO)c5)cc4C3)c2C1` (configuration not stated), the IC50 lay in the range of 10 to 50 nM.

In turn, `Cc1nc2ccc(-c3ccc4c(c3)CN(c3nc(-c5ccccn5)nc5c3CC(C)(C)CC5)CCO4)cc2[nH]1` came in with an IC50 of 250 to 1000 nM.

Take `Cc1nc2ncc(-c3ccc4c(c3)CN(c3nc(CN(C)C5CC5)nc5c3CC(C)(C)CC5)CCO4)cc2[nH]1`: the IC50 fell in the range of 50 to 250 nM.

For the compound `COc1ccc2c(N3CCOc4ccc(-c5cnc6nc(C)[nH]c6c5)cc4C3)nc(CN(C)C)nc2c1`, the half-inhibitory concentration (IC50) was not above 10 nM.

In turn, `Cc1nc2ncc(-c3ccc4c(c3)CN(c3ncnc5c3CC[C@H](C)C5)CCO4)cc2[nH]1` yielded a half-maximal inhibitory concentration (IC50) of 10 to 50 nM.

`Cc1nc2ccc(-c3ccc4c(c3)CN(c3nc(CN(C)C)nc(C)c3CC3CC3)CCO4)cc2[nH]1` yielded an IC50 of 10 to 50 nM.

Compound `Cc1nc2ccc(-c3ccc4c(c3)CN(c3ncnc(C)c3C)CCO4)cc2[nH]1` showed an IC50 of 50 to 250 nM.

Compound `CC1(C)CCc2ncnc(N3CCOc4ccc(-c5cnc(N)c(S(=O)(=O)N6CCC(N)C6)c5)cc4C3)c2C1` (configuration not stated) had an IC50 of 10 to 50 nM.

Compound `Cc1nc2ccc(-c3ccc4c(c3)CN(c3ncnc(C)c3Cc3ccc(Cl)c(N(C)C)c3)CCO4)cc2[nH]1` gave a half-maximal inhibitory concentration (IC50) of 10 to 50 nM.

The compound `Cc1nc2ccc(-c3ccc4c(c3)CN(c3ncnc(C)c3Cc3ccccc3C)CCO4)cc2[nH]1` returned an IC50 of 50 to 250 nM.

On to `O=C(CCCN1CCCCC1)Nc1nc2ccc(-c3ccc4c(c3)CN(c3ccnc5ccccc35)CCO4)cc2[nH]1`, for which the IC50 is 50 to 250 nM.

Compound `CCNCc1nc2c(c(N3CCOc4ccc(-c5ccc6nc(C)[nH]c6c5)cc4C3)n1)CC(C)(C)CC2` showed an IC50 not above 10 nM.

Regarding `CC1(C)CCc2ncnc(N3CCOc4ccc(-c5cnc(N)c(S(=O)(=O)N[C@H]6CC[C@H](N)CC6)c5)cc4C3)c2C1`, the IC50 lay in the range of 10 to 50 nM.

`CC1(C)CCc2ncnc(N3CCOc4ccc(-c5cnc(N)c(S(=O)(=O)NCC(F)(F)F)c5)cc4C3)c2C1` had a 50% inhibitory concentration (IC50) of 50 to 250 nM.

Compound `Cc1nc(CN(C)C)nc(N2CCOc3ccc(-c4ccc5[nH]c(CF)nc5c4)cc3C2)c1Cc1ccc(F)cc1` returned an IC50 not above 10 nM.

Consider `Cc1nc2ccc(-c3ccc4c(c3)CN(c3ncnc5c(Cl)cccc35)CCO4)cc2[nH]1`, for which the IC50 fell in the range of 10 to 50 nM.

`Cc1nc2cc(-c3ccc4c(c3)CN(c3nc([C@H]5CCCN5)nc5c3CC(C)(C)CC5)CCO4)cnc2[nH]1` displayed a half-maximal inhibitory concentration (IC50) not above 10 nM.

In turn, `CN(C)c1ncc(-c2ccc3c(c2)CN(c2ncnc4c2CC(C)(C)CC4)CCO3)cc1NS(C)(=O)=O` yielded an IC50 of 10 to 50 nM.

With `Cc1nc2cc(-c3ccc4c(c3)CN(c3nc(CCN5CCCC5)nc5c3CC(C)(C)CC5)CCO4)cnc2[nH]1`, the half-inhibitory concentration (IC50) is 10 to 50 nM.

`CC1=Cc2ncnc(N3CCOc4ccc(-c5cnc(N)c(S(=O)(=O)NCC(C)(C)N)c5)cc4C3)c2CC1(C)C`: the IC50 lay in the range of 10 to 50 nM.

`Cc1nc(CN(C)C)nc(N2CCOc3ccc(-c4cnc5sc(N)nc5c4)cc3C2)c1C(C)C` returned a half-maximal inhibitory concentration (IC50) not above 10 nM.

On to `CN(C)C1CN(S(=O)(=O)c2cc(-c3ccc4c(c3)CN(c3ncnc5c3CC(C)(C)CC5)CCO4)cnc2N)C1`, for which the IC50 lay within 50 to 250 nM.

With `Cc1nc2cc(-c3ccc4c(c3)CN(c3nc(CN(C)C)nc(C)c3Cl)CCO4)ccc2[nH]1`, the IC50 is 50 to 250 nM.

In turn, `Cc1ncnc(N2CCOc3ccc(-c4ccn5nc(N)nc5c4)cc3C2)c1Cc1ccc(F)cc1` registered a 50% inhibitory concentration (IC50) of 10 to 50 nM.

Consider `CSc1nc2c(c(N3CCOc4ccc(-c5ccc6nc(C)[nH]c6c5)cc4C3)n1)CCC2`, for which the half-inhibitory concentration (IC50) fell in the range of 250 to 1000 nM.
